Test results taken from patent US7109193B2, “Tricyclic diazepines tocolytic oxytocin receptor antagonists” (Wyeth, priority 2001, dated 2006).

Molecular target: T1, human vasopressin V1a receptor subtype (Homo sapiens, UniProt P37288)
T1 construct: host or cells: CHO cells (pZeoSV vector for the Thibonnier line)
Assay: Vasopressin binding in Chinese Hamster Ovary cell membranes expressing human vasopressin V1a subtype receptors
Details: 100 nM, CHO cell membranes, [3H]Manning ligand, values without parentheses
Procedure, shortened: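 Membranes from CHO cells expressing human V1a receptor were incubated with [3H]Manning ligand (added as 20 μL of 8 nM) in pH 7.4 Tris buffer with MgCl2, BSA and protease inhibitors, 60 min at room temperature. Bound radioactivity was counted after filtration; values are percent inhibition at a stated concentration or IC50.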

T1 sequence (P37288 whole entry): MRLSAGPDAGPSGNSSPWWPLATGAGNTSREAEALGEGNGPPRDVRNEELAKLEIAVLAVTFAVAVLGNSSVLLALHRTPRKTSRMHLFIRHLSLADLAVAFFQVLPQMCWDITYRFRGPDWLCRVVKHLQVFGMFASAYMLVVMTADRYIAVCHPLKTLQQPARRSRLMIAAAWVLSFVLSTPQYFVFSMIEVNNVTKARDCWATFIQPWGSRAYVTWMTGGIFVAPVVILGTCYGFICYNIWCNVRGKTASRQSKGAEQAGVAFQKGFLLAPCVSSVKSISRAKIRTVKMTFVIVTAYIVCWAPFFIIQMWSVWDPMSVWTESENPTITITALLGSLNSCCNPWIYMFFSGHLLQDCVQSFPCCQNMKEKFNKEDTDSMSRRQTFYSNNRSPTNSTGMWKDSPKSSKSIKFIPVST

SMILES | inhibition at 0.1 µM [%]
COc1ccccc1-c1ccc(C(=O)N2Cc3ccc(C(=O)N(C)CCN(C)C)n3Cc3ccccc32)cc1OC [Example 94, 10-[(2,2′-Dimethoxy[1,1′-biphenyl]-4-yl)carbonyl]-N-[2-(dimethylamino)ethyl]-N-methyl-10,11-dihydro-5H-pyrrolo[2,1-c][1,4]benzodiazepine-3-carboxamide] | 28
COc1cccc(-c2ccc(C(=O)N3Cc4ccc(C(=O)N(C)CCN(C)C)n4Cc4ccccc43)cc2OC)c1 [Example 95, 10-[(2,3′-Dimethoxy[1,1′-biphenyl]-4-yl)carbonyl]-N-[2-(dimethylamino)ethyl]-N-methyl-10,11-dihydro-5H-pyrrolo[2,1-c][1,4]benzodiazepine-3-carboxamide] | 68
CN(C)CCN(C)C(=O)c1ccc2n1Cc1ccccc1N(C(=O)c1ccc(-c3cccc4ccccc34)cc1Cl)C2 [Example 96, 10-[2-Chloro-4-(1-naphthyl)benzoyl]-N-[2-(dimethylamino)ethyl]-N-methyl-10,11-dihydro-5H-pyrrolo[2,1-c][1,4]benzodiazepine-3-carboxamide] | 10
COc1ccccc1-c1ccc(C(=O)N2Cc3ccc(C(=O)N(C)CCCN(C)C)n3Cc3ccccc32)cc1C [Example 100, N-[3-(Dimethylamino)propyl]-10-[(2′-methoxy-2-methyl[1,1′-biphenyl]-4-yl)carbonyl]-N-methyl-10,11-dihydro-5H-pyrrolo[2,1-c][1,4]benzodiazepine-3-carboxamide] | 27
Cc1ccccc1-c1ccc(C(=O)N2Cc3ccc(C(=O)N(C)CCCN(C)C)n3Cc3ccccc32)cc1C [Example 101, N-[3-(Dimethylamino)propyl]-10-[(2,2′-dimethyl[1,1′-biphenyl]-4-yl)carbonyl]-N-methyl-10,11-dihydro-5H-pyrrolo[2,1-c][1,4]benzodiazepine-3-carboxamide] | 75
COc1cccc(-c2ccc(C(=O)N3Cc4ccc(C(=O)N(C)CCCN(C)C)n4Cc4ccccc43)cc2C)c1 [Example 102, N-[3-(Dimethylamino)propyl]-10-[(3′-methoxy-2-methyl[1,1′-biphenyl]-4-yl)carbonyl]-N-methyl-10,11-dihydro-5H-pyrrolo[2,1-c][1,4]benzodiazepine-3-carboxamide] | 45
COc1ccccc1-c1ccc(C(=O)N2Cc3ccc(C(=O)N(C)CCCN(C)C)n3Cc3ccccc32)cc1 [Example 103, N-[3-(Dimethylamino)propyl]-10-[(2′-methoxy[1,1′-biphenyl]-4-yl)carbonyl]-N-methyl-10,11-dihydro-5H-pyrrolo[2,1-c][1,4]benzodiazepine-3-carboxamide] | 43

Same assay, conditions: CHO cell membranes, [3H]Manning ligand, values in parentheses

SMILES | IC50 [µM]
Cc1cc(C(=O)N2Cc3ccc(C(=O)N(C)CCCN(C)C)n3Cc3ccccc32)ccc1-c1ccccc1C(F)(F)F [Example 97, N-[3-(Dimethylamino)propyl]-N-methyl-10-{[2-methyl-2′-(trifluoromethyl)[1,1′-biphenyl]-4-yl]carbonyl}-10,11-dihydro-5H-pyrrolo[2,1-c][1,4]benzodiazepine-3-carboxamide] | 1.09
COc1cc(-c2ccccc2C)c(Cl)cc1C(=O)N1Cc2ccc(C(=O)N(C)CCCN(C)C)n2Cc2ccccc21 [Example 98, 10-[(6-Chloro-3-methoxy-2′-methyl[1,1′-biphenyl]-4-yl)carbonyl]-N-[3-(dimethylamino)propyl]-N-methyl-10,11-dihydro-5H-pyrrolo[2,1-c][1,4]benzodiazepine-3-carboxamide] | 0.238
COc1cccc(-c2cc(OC)c(C(=O)N3Cc4ccc(C(=O)N(C)CCCN(C)C)n4Cc4ccccc43)cc2Cl)c1 [Example 99, 10-[(6-Chloro-3,3′-dimethoxy[1,1′-biphenyl]-4-yl)carbonyl]-N-[3-(dimethylamino)propyl]-N-methyl-10,11-dihydro-5H-pyrrolo[2,1-c][1,4]benzodiazepine-3-carboxamide] | 0.311
